In patent US9827250B2, “Lens incorporating myopia control optics and muscarinic agents” (Johnson & Johnson Vision Care, Inc., priority 2012, dated 2017):

Legend:
[1] = Drug release from drug loaded lenses into PBS; assay type: physicochemical; conditions: 34 degrees C
Procedure: Five drug loaded lenses, all together, were placed into 1 mL of phosphate buffered saline (PBS) and placed in a shaking water bath at thirty-four (34) degrees C. Samples were taken at regular intervals and replaced with fresh PBS. Release samples were analyzed spectrophotometrically to determine the concentration. As well, the nature of the peaks was also examined to determine whether there were any changes relative to the control samples (freshly prepared drug in appropriate buffer solutions). Drug loading and release was controlled using different loading concentrations to determine whether the release rate of the drug could be altered by changing simply or easily controlled conditions. Various drug concentrations were examined. In the case of 1 DAM, AT in ethanol and water (1:1) at various concentrations was examined or utilized. For the ATSM release from ATE lenses, the lenses were removed from the loading solution and rinsed to remove loosely physically adsorbed drug. For the 1 DAM lenses, the lenses were dried to remove any residual ethanol and rehydrated prior to the release study.
To establish drug release concentrations, five drug loaded lenses were placed into 1 ml of phosphate buffered saline (PBS) solution and placed in a shaking water bath at 34° C. […] Samples of solution were analyzed spectrophotometrically to determine the concentration of the released drug.

progression of myopia = conditions: 0.5 percent drops instilled one time per day; cited from earlier work

Compound	release of drug from 1 DAM lenses ([1]; 1 DAM lenses, FIG. 5)	release rate from ATE lenses as compared to 1 DAM lenses ([1]; ATE lenses, FIG. 7)	efficacy in slowing the progression of myopia (progression of myopia)
CN1[C@@H]2CC[C@H]1C[C@@H](OC(=O)C(CO)c1ccccc1)C2 (stereo partly drawn) [ATSM, atropine sulphate monohydrate]	release more quickly in greater amounts	somewhat lower release rate	–
CN1[C@@H]2CC[C@H]1C[C@@H](OC(=O)C(CO)c1ccccc1)C2 (stereo partly drawn) [Atropine, atropine]	–	–	show efficacy in slowing the progression of myopia
